Source: patent US9907760B2 (LIBRAGEN, priority 2010, dated 2018)
Marks after values point to notes of the source that are not given here.

What was measured:
normal human fibroblasts [1] = assay: Proliferation of normal human fibroblasts treated with supernatant of treated keratinocytes (Cell Proliferation ELISA, BrdU); format: cell-based; settings: 1 μM on keratinocytes 48 hrs, supernatant on fibroblasts 48 hrs
Experimental: This experiment evaluated the proliferation of normal human fibroblasts (dermal primocultures) after 48 hours of treatment with supernatant transferred from human keratinocytes.
The “Cell Proliferation ELISA, BrdU” test quantifies cell proliferation by measuring incorporation of bromodeoxyuridine (BrdU) during DNA synthesis followed by luminescence detection.
Cells were placed in the presence of the treatment for a specified time (incubator at 37° C., 5% CO2). The pyrimidine analogue 5-bromo-2′-deoxyuridine (BrdU) was then added and the cells were further incubated (37° C., 5% CO2) for a minimum of 2 hours, during which time BrdU is incorporated in place of thymidine into the DNA of proliferating cells.
The culture medium was removed, then the cells were fixed and the DNA denatured at the same time (antibody accessibility). An anti-BrdU-POD (peroxidase) antibody was added; this antibody binds to BrdU in newly synthesized DNA. The immune complex was then detected by addition of luminol substrate with measurement of luminescence (Genios, Tecan).
NHF were seeded at a density of 5,000 cells/well in E-199 culture medium (Gibco® Invitrogen) in a 96-well Optilux white plate (BD Falcon 353947). The plate was placed in a humid incubator (37° C., 5% CO2) for 24 hours.
The different products at the respective concentrations (diluted in KSFM culture medium, 600 μl) were contacted with NHK cells for 48 hours. Control cells were left untreated. Each treatment conditions was evaluated on three wells of NHK cells.
After 48 hours, a fraction of the NHK cell supernatant was removed. Each sample of supernatant (2 times 100 μl) from a well on the NHK plate (24 wells) was transferred to two wells in the NHF plate already containing 100 μl of E-199 medium per well. […]
Cell proliferation was quantified by the method described in the “Cell Proliferation ELISA, BrdU” kit (Roche Applied Science No. 11669915001). This is an immunological assay with luminescence detection (Genios, Tecan).
The means of the luminescence values (RLU/s) of six wells with the same treatment condition were determined. […] Proliferation of treated cells was expressed as a percentage of the control(untreated cells−100%)(OD treated/OD control×100).

normal human fibroblasts [2] = assay: Procollagen 1 production by normal human fibroblasts treated with supernatant of treated keratinocytes (EIA); format: cell-based; settings: supernatant on fibroblasts 48 hrs
Experimental: This experiment was carried out according to the method described in example 3. Fibroblast supernatants, containing procollagen 1, were collected and assayed immediately for procollagen 1 by means of an EIA microtiter plate.
After 48 hours of treatment, NHF cell supernatants were collected and centrifuged.
Procollagen 1 was assayed in the cell supernatants by the method described in the Procollagen Type 1 C-peptide EIA kit (MK101, Takara). This is an EIA assay with spectrophotometric detection at 450 nm (Safire, Tecan).
Duplicate determinations were carried out for two wells whereas the third well was assayed only once.
Optical densities (OD) measured on each sample were plotted on a graph (specific standard curve in the kit). The procollagen 1 concentration was expressed in ng/ml.
As in example 3, the protein content was determined in the cell pellets of the supernatants for which procollagen 1 was assayed.
Thus, the final result was expressed as ng/ml of procollagen 1 per μg of protein. A mean value was calculated for wells treated with the same concentration of test product. This mean was compared with the mean of the control wells (Student t test−comparison of means, significant difference at 95% if p<0.05* and at 99% if p<0.01**).
The percent stimulation produced by the test products was determined by comparing the mean values of the control and treatment conditions: % Stimulation=(Treated−Control)/Control

[3] = system: normal human keratinocytes; assay: Hyaluronic acid production by normal human keratinocytes (HA-ELISA of supernatant); format: cell-based; settings: 1 μM
Experimental: Normal human keratinocytes were cultured to confluence. Cells were treated with the test products for 48 hours. The supernatants, containing hyaluronic acid, were collected and assayed immediately. Hyaluronic acid was quantified with an ELISA microtiter plate.
(§1) Primocultures of normal human keratinocytes (NHK) were obtained from cells isolated from skin specimens from plastic surgery.
(§2) NHK were seeded at a density of 130,000 cells/well in specific KSFM culture medium (Gibco®, Invitrogen) in a 24-well plate. The plate was placed in a humid incubator (37° C., 5% CO2) for 24 hours.
The different products at the respective concentrations (diluted in KSFM medium, 600 μl) were contacted with the cells for 48 hours. Untreated cells were used as the control condition.
(§3) Each treatment condition was evaluated on three wells of NHK cells.
After 24 hours of treatment, an intermediate sample of […] of supernatant was removed from each well and the plate returned to the incubator (37° C., 5% CO2).
After 48 hours of treatment, the remaining supernatant (≈350 μA) was collected and centrifuged.
Cell supernatants were assayed according to the method described in the Hyaluronan Enzyme-Linked Immunosorbent Assay kit (HA-ELISA, Echelon Biosciences Inc.). This is an ELISA assay with spectrophotometric detection at 405 nm (Safire, Tecan).
(§4) The assay was performed in duplicate for each well.
(§5) Optical densities (OD) measured on each sample were plotted on a graph (specific standard curve in the kit). The hyaluronic acid concentration was expressed in ng/ml.
(§6) The amount of hyaluronic acid released by the cells was determined for each well and for each treatment condition, relative to the cell content expressed as μg of protein. Thus, the final result was expressed as ng/ml of hyaluronic acid per μg of protein.
A mean value was calculated for wells treated with the same concentration of test product. This mean was compared with the mean of the control wells (Student t test−comparison of means−significant difference at 95% if p<0.05* and at 99% if p<0.01*).
(§7) The percent stimulation induced by the test products was determined by comparing the mean values of the control and treatment conditions: % Stimulation=(Treated−Control)/Control
The vitamin A propionate was dissolved in DMSO.

normal human fibroblasts [4] = assay: Hyaluronic acid production by normal human fibroblasts treated with supernatant of treated keratinocytes (HA-ELISA); format: cell-based; settings: supernatant on fibroblasts 48 hrs
Experimental: Normal human dermal fibroblasts were cultured to confluence. Cells were treated for 48 hours with supernatants of normal human keratinocytes previously grown in the presence of the test products. The fibroblast supernatants, containing hyaluronic acid, were collected and assayed immediately. Hyaluronic acid was quantified with an ELISA microtiter plate. Protein content was determined for each well of the microtiter plate.
as §1, §2
Primocultures of normal human fibroblasts (NHF) were obtained from cells isolated from skin specimens from plastic surgery.
NHF were seeded at a density of 90,000 cells/well in E-199 culture medium supplemented with 0.5% FCS (Gibco® Invitrogen) in a 24-well plate. The plate was placed in a humid incubator (37° C., 5% CO2) for 24 hours.
The two cell types—NHK and NHF—were plated 48 hours apart.
The different products at the respective concentrations (diluted in KSFM medium, 600 μl) were contacted with NHK cells for 48 hours. Untreated cells were used as the control condition. Two plates were used to separately test NAG, and NAG+vitamin A propionate, on the one hand, and NAG6P, and NAG6P+vitamin A propionate, on the other hand.
as §3
After 48 hours, a fraction of NHK cell supernatant (300 μl/well) was removed and transferred well for well into NHF cell supernatants (300 μl E-199/well−fresh medium without FCS).
This gave a final volume of 600 μl/well (50:50 ratio of KSFM/E-199 medium) which remained on the NHF cells for 48 hours.
After 48 hours of treatment, the NHF cell supernatant was collected and centrifuged.
Hyaluronic acid was assayed in the cell supernatants as described in example 1.
as §4, §5, §6
A mean value was calculated for wells treated with the same concentration of test product. This mean was compared with the mean of the control wells (Student t test−comparison of means−significant difference at 95% if p<0.05* and at 99% if p<0.01**).
as §7

[5] = system: patients with osteoarthritis; settings: three-year trial, 212 patients with osteoarthritis, versus slight worsening in placebo group; cited from earlier work
[6] = 1 μM on keratinocytes 48 hrs, NAG6P plate (Table 8)
[7] = 1 μM on keratinocytes 48 hrs, NAG plate (Table 7)
[8] = 1 μM on keratinocytes 48 hrs, NAG6P plate (Table 6)
[9] = 1 μM on keratinocytes 48 hrs, NAG plate (Table 5)
[10] = 5 mM on keratinocytes 48 hrs, vs Control
[11] = 10 mM on keratinocytes 48 hrs, vs Control

## CCC(=O)OC/C=C(C)/C=C/C=C(C)/C=C/C1=C(C)CCCC1(C)C [Vit. A propionate, vitamin A propionate]
Normal human fibroblasts [1]
  RLU: 4640 ± 267 RLU
Normal human fibroblasts [1]; DMSO control = 100%
  % Proliferation: 109%**
Normal human fibroblasts [2]; [6]
  Procollagen 1: 704.4 ± 38.6 ng/mL
  Procollagen 1 (ng/ml/μg prot.): 81.9 ± 13.0 ng/ml/μg prot.
Normal human fibroblasts [2]; 1 μM on keratinocytes 48 hrs, NAG6P plate (Table 8), vs DMSO control
  % stimulation (procollagen 1): 5%
Normal human fibroblasts [2]; [7]
  Procollagen 1: 706.1 ± 73.8 ng/mL
  Procollagen 1 (ng/ml/μg prot.): 64.3 ± 20.1 ng/ml/μg prot.
Normal human fibroblasts [2]; 1 μM on keratinocytes 48 hrs, NAG plate (Table 7), vs DMSO control
  % stimulation (procollagen 1): 15%
[3]; 24 hrs
  % stimulation of hyaluronic acid synthesis: 34%*
  Hyaluronic acid: 1056 ± 186.5 ng/mL
[3]; 24 hrs, listed as vitamin A propionate
  % stimulation of hyaluronic acid synthesis: 34%
[3]; 48 hrs
  Hyaluronic acid: 1944.8 ± 393.2 ng/mL
  Hyaluronic acid (ng/ml/μg prot.): 137.1 ± 32.2 ng/ml/μg prot.
[3]; 48 hrs, vs DMSO control
  % stimulation of hyaluronic acid synthesis: 105%*
[3]; 48 hrs, vs DMSO control, listed as vitamin A propionate
  % stimulation of hyaluronic acid synthesis: 105%
Normal human fibroblasts [4]; [8]
  Hyaluronic acid: 3358.8 ± 615.3 ng/mL
  Hyaluronic acid (ng/ml/μg prot.): 389.2 ± 108.3 ng/ml/μg prot.
Normal human fibroblasts [4]; 1 μM on keratinocytes 48 hrs, NAG6P plate (Table 6), vs DMSO control
  % stimulation of hyaluronic acid synthesis: 7%
Normal human fibroblasts [4]; [9]
  Hyaluronic acid: 3645.6 ± 667.8 ng/mL
  Hyaluronic acid (ng/ml/μg prot.): 316.6 ± 68 ng/ml/μg prot.
Normal human fibroblasts [4]; 1 μM on keratinocytes 48 hrs, NAG plate (Table 5), vs DMSO control
  % stimulation of hyaluronic acid synthesis: −18%

## CC(=O)N[C@H]1C(O)O[C@H](CO)[C@@H](O)[C@@H]1O (stereo partly shown) [NAG, N-acetylglucosamine]
Normal human fibroblasts [2]; 5 mM on keratinocytes 48 hrs
  Procollagen 1: 685.9 ± 38.6 ng/mL
  Procollagen 1 (ng/ml/μg prot.): 57.3 ± 10.5 ng/ml/μg prot.
Normal human fibroblasts [2]; [10]
  % stimulation (procollagen 1): −37%*
Normal human fibroblasts [2]; 10 mM on keratinocytes 48 hrs
  Procollagen 1: 700.9 ± 32.7 ng/mL
  Procollagen 1 (ng/ml/μg prot.): 44.9 ± 1.3 ng/ml/μg prot.
Normal human fibroblasts [2]; [11]
  % stimulation (procollagen 1): −51%**
Normal human fibroblasts [4]; 5 mM on keratinocytes 48 hrs
  Hyaluronic acid: 4277.6 ± 488 ng/mL
  Hyaluronic acid (ng/ml/μg prot.): 358.9 ± 81.8 ng/ml/μg prot.
Normal human fibroblasts [4]; [10]
  % stimulation of hyaluronic acid synthesis: −17%
Normal human fibroblasts [4]; 10 mM on keratinocytes 48 hrs
  Hyaluronic acid: 4056.1 ± 315.5 ng/mL
  Hyaluronic acid (ng/ml/μg prot.): 258.8 ± 8.1 ng/ml/μg prot.
Normal human fibroblasts [4]; [11]
  % stimulation of hyaluronic acid synthesis: −40%**

## N[C@H]1C(O)O[C@H](CO)[C@@H](O)[C@@H]1O (stereo partly drawn) [glucosamine, D-glucosamine]
[5]
  improvement in symptoms: 20-25%
